Measured values from patent publication US6346539B1, “Treatment of skin conditions” (BTG International Limited, priority 1998, dated 2002).
Read-outs that look alike come from different tables or passages of the source.

Assays:
melan-a cells [1] = assay: Effect of RO-31-8220 on growth of melan-a cells with piperine and TPA, SRB assay; assay type: cell-based, mouse; conditions: 4 days
Procedure: Cells of mouse melan-a cell line (passage number 18-24), a first known line of non-tumorigenic pigmented mouse melanocytes were maintained in a flask (Costar, Cambridge, Mass., USA) using RPMI 1640 (ICN, Costa, Mesa, Calif., USA) as a basic medium. For microplate proliferation assays, subconfluent melan-a cultures were trypsinized (0.25% trypsin at 37° C. for 5-10 min) and inoculated with a repeater-pipettor (Finn pipette, Labsystems, Finland) into 96-well microtiter plates (Costar, Cambridge, Mass., USA). The plates were incubated at 37° C. in a 10% CO2, 90% air humidified atmosphere for the stated length of time. At the end of the incubation, an SRB assay was performed. Briefly, cells attached to the bottom of the plate were fixed by addition of cold trichloroacetic acid (TCA, 4° C., Aldrich, Dorset, UK) on the top of the growth medium (final TCA 20% w/v). The plate was placed at 4° C. for 1 hour before being gently washed five times with tap water. It was allowed to dry in air, or aided with a hair dryer to speed up the drying process, then 50 μl of 4% w/v SRB dissolved in 1% acetic acid in water was added to each well for 30 min. […] The plate was shaken for 15 min on a gyratory shaker followed by reading the optical density (OD) at 550 nm in a microplate spectrophotometer (Anthos Labtec HT3, version 1.06). […]

melan-a cells [2] = assay: Dendricity of melan-a cells by observation under microscope; assay type: cell-based, mouse; parameters: key: +++: highly dendritic; ++: moderately dendritic; +: weakly dendritic; −: no effect
From the text: Effect on dendricity of melan-a cells by the test compounds was by observation under microscope. Dendricity is relevant to vitiligo since normal skin melanocytes have dendrites, but in vitiligo the melanocytes seem to lose these before they disappear from the patches.

mouse melan-a cells = assay: Melanocyte proliferant activity of piperine derivatives, SRB assay, 4 days, 10% FBS; assay type: cell-based; conditions: for Active at 10 μM? / More active than piperine at higher conc. (μM)?: overall summary; for More active than piperine at higher conc. (μM)?: concentrations at which more active than piperine
Procedure: The plates were incubated at 37° C. in a 10% CO2, 90% air humidified atmosphere for the stated length of time. At the end of the incubation, an SRB assay was performed. Briefly, cells attached to the bottom of the plate were fixed by addition of cold trichloroacetic acid (TCA, 4° C., Aldrich, Dorset, UK) on the top of the growth medium (final TCA 20% w/v). The plate was placed at 4° C. for 1 hour before being gently washed five times with tap water. It was allowed to dry in air, or aided with a hair dryer to speed up the drying process, then 50 μl of 4% w/v SRB dissolved in 1% acetic acid in water was added to each well for 30 min. At the end of the staining period, unbound SRB was removed by washing 4 times with 1% acetic acid. The plate was air dried again, and 150 μl of 10 mM aqueous Tris base (Sigma-Aldrich Co. Ltd, Irvine, UK) was added into each well to solubilize the cell-bound dye.
Various piperine derivatives of formula (1) were synthesised and tested for melanocyte (mouse melan-a) proliferant activity in-vitro. Cells we re incubated with the test compound for 4 days, as previously for the mouse cells but with 10% FBS, after which the sulphorhodamine-B (SRB) assay was performed to determnine cell number SRB uptake was measured as optical density at 550 nm. The control assay was carried out on cells incubated without test compound. There were 2 or 3 series of experiments, each of which consisted of six replcate experiments.
Percentage cell growth was obtained with a given compound calculated as (optical density in the presence of the compound/control optical density)×100.
Melan-a cell proliferant activity for tested compounds was compared with that obtained with piperine. […] All figures are given with Standard Error of the Mean.

[3] = Mus musculus, Melan-a, 96 h, single concentration (10 μM), melan-a, ± SEM, read-out: Percentage cell growth (Repeated experiments)
[4] = single concentration (10 μM), melan-a
[5] = Mus musculus, Melan-a, 96 h, read-out: growth of melan-a cells as % of control, dose experiment
[6] = Mus musculus, Melan-a, 96 h, 10 μM, read-out: growth of melan-a cells as % of control, dose experiment

SMILES | effect of RO-31-8220 on the proliferant effects of piperine and TPA on melan-a cells (melan-a cells [1]; RO-31-8220 0.1-100 nM, piperine 1 μM, TPA 20 nM) | cytotoxic effect of RO-31-8220 alone on melan-a cells (melan-a cells [1]; concentrations up to 100 nM) | Dendricity (melan-a cells [2]; Table 8, 10 μM) | activity at 10 µM (mouse melan-a cells; [3]) [%] | Active at 10 μM? (mouse melan-a cells; melan-a) | Stimulant activity (mouse melan-a cells; [4]) | Dendricity (melan-a cells [2]; Table 11, 10 μM) | activity at 1 µM (mouse melan-a cells; [5]) [%] | activity at 10 µM (mouse melan-a cells; [6]) [%] | activity at 25 µM (mouse melan-a cells; Mus musculus, Melan-a, 96 h, 25 μM, read-out: growth of melan-a cells as % of control, dose experiment) [%] | activity at 50 µM (mouse melan-a cells; [5]) [%] | More active than piperine at higher conc. (μM)? (mouse melan-a cells) | Dentricity, dose experiment (melan-a cells [2]; 1 μM) | Dentricity, dose experiment (melan-a cells [2]; 10 μM) | Dentricity, dose experiment (melan-a cells [2]; 50 μM) | Dentricity, dose experiment (melan-a cells [2]; 100 μM) | Relative activity to piperine (mouse melan-a cells; (A-100) compound/(A-100) piperine, 10 μM) | activity at 100 µM (mouse melan-a cells; [5]) [%] | Dendricity (melan-a cells [2]; Table 12, 10 μM)
Cn1cc(C2=C(c3cn(CCCSC(=N)N)c4ccccc34)C(=O)NC2=O)c2ccccc21 [RO-31-8220] | effectively inhibited | did not have significant cytotoxic effect |  |  |  |  |  |  |  |  |  |  |  |  |  |  |  |  | 
O=C(/C=C/c1ccc2c(c1)OCO2)N1CCOCC1 [RV-B03, 1-(3-trans-benzo-1,3-dioxol-5-ylacryloyl)morpholine] |  |  | − | 103 ± 12 | No | None |  |  |  |  |  |  |  |  |  |  |  |  | 
O=C(CCCCc1ccc2c(c1)OCO2)N1CCCCC1 [RV-C02, Tetrahydropiperine] |  |  |  |  | Yes | Positive | +++ | 134 ± 15 | 183 ± 33 | 199 ± 31 | 175 ± 12 | No |  |  |  |  |  |  | 
O=C(CCc1ccc2c(c1)OCO2)N1CCCCC1 [RV-C03, 3-benzo-1,3-dioxol-5-ylpropionic Acid Piperidide] |  |  |  | 104 ± 5 | No^b | None | + |  |  |  |  |  |  |  |  |  |  |  | 
COc1ccccc1/C=C/C(=O)N1CCCCC1 [RV-G01, 1-(2-methoxy-cinnamoyl)-piperidine] |  |  |  | 105 ± 8 | No | None |  | 99 ± 8 | 105 ± 8 |  | 103 ± 6 | No | − | − | − | − | 0.04 | 119 ± 9 | 
COc1cccc(/C=C/C(=O)N2CCCCC2)c1 [RV-G02, 1-(3-methoxy-cinnamoyl)piperidine] |  |  |  |  | No | Negative |  | 99 ± 5 | 95 ± 18 |  | 110 ± 11 | No | − | − | − | − |  | 127 ± 9 | 
COc1ccc(/C=C/C(=O)N2CCCCC2)cc1 [RV-G03, 1-(4-methoxy-cinnamoyl)piperidine] |  |  |  | 121 ± 8 | No | Non- significant |  | 90 ± 10 | 108 ± 20 |  | 111 ± 10 | No | − | − | − | − |  | 133 ± 15 | −
COc1ccc(/C=C/C(=O)N2CCCCC2)cc1OC [RV-G04, 1-(3,4-dimethoxycinnamoyl)piperidine] |  |  |  | 100 ± 9 | No | None |  | 95 ± 11 | 100 ± 9 |  | 114 ± 8 | No | − | − | − | − |  | 123 ± 7 | −
